{"source": "patent US20190231847A1", "about": "“TREATMENT OF OCULAR DISEASE” (priority 2016, published 2019)", "key": {"[1]": {"details": "mouse, in vivo, ip, 0.3 mg/kg", "quoted_text": "Bodyweight (BW) of each mouse was monitored daily during the course of treatment."}, "[2]": {"tested_on": "cell infiltrate, corneal swelling and blood vessels", "experiment": "H&E staining of sutured rat corneas, Example 4", "assay_type": "in vivo", "procedure": "(§1) Approximately 24 hours after the last treatment the eyes were imaged and clinically scored. The sutured eyes were scored based on vessel density, vessels distance to suture and inflammation. Vessel density was scored out of three, 0=no density, 1=mild, 2=moderate, 3=high. Vessels distance to suture was scored out of four, 0=no reach, 1=small distance, 2=moderate distance, 3=¾ of the way, 4=reached sutures and inflammation was scored out of three, 0=none, 1=minimal, 2=moderate, 3=severe. After clinical scoring the eyes were enucleated, tissue processed, wax embedded and cut into 5 μm sections while taking care to find the sutured area. Sections were stained with haematoxylin and eosin (H&E) to confirm suture location in each eye and adjacent slides were then used for immunohistochemistry to identify CD44+ cells and FKBPL expression as well NFκB and p-IκBα.\n(§2) Sections (5 μm) were stained with haematoxylin and eosin (H&E) to confirm suture location in each eye. Adjacent slides were then used for immunohistochemistry to identify, CD44+ cells and FKBPL expression."}, "[3]": {"tested_on": "NFκB", "experiment": "Immunohistochemical analysis of free NFκB expression in rat cornea", "assay_type": "in vivo", "details": "1 μM ALM201", "procedure": "as §1\n(§3) NFκB and phosphorylated-IκBα antibodies were also used in this experiment to see if ALM201 affected the NFκB pathway. Nuclear factor kappa-light-chain-enhancer of B cells or NFκB is a transcription factor which is involved in several processes including inflammation, B cell development, apoptosis, immune regulation and cell proliferation. There are 5 different NFκB heterodimers in the NFκB family, depending on which heterodimer is activated they can activate or repress the transcription of the above process. […]"}, "[4]": {"tested_on": "CD44", "experiment": "Immunohistochemistry staining for CD44 in rat cornea", "assay_type": "in vivo", "details": "sutured corneas, 1 μM ALM201", "procedure": "as §1, §2"}, "[5]": {"tested_on": "neovascularisation induced by sutures in the cornea", "experiment": "Rat corneal suture model, Example 1 (blinded grading at day 6, images)", "assay_type": "in vivo", "procedure": "To assess the action of ALM201 (SEQ ID NO:3) on the ocular surface, the ability to halt vessel growth was measured. Vessel growth was stimulated through a well-accepted model (Shi et al., 2011) whereby a suture was placed in the central cornea of rat eyes (FIG. 1). We have shown the rat eye is similar anatomically to the human eye (Moore J E, McMullen C B, Mahon G and Adamis A P. The corneal epithelial stem cell. DNA Cell Biol. 2002; 21(5-6):443-51; incorporated herein by reference).\nThe experimental groups were: • Subconjunctival injection of peptide (5 rats), control group (5 rats) and positive control group (5 rats) • Intrastromal injection of peptide (5 rats), control group (5 rats) and positive control group (5 rats) • Topical application of peptide (5 rats), control group (5 rats) and positive control group (5 rats)\nA suture was placed in the central cornea of one eye of each animal while the control eye remained untouched. For the injection groups, peptide was added to the rat's eyes at day 0, day 3, and day 6. For the topical application group, peptide and the positive control was added daily. Each day after suture, rats were monitored for vessel growth and photographed using a Hawk Eye Portable Digital Slit Lamp (Dioptrix, France) and inverted microscope (Nikon's E600FN; Surrey, UK). At a time point when a difference is noted (e.g. day 6) between untreated and peptide treated animals, they received 8 μg/g tail vein injections of an endothelial-specific fluorescein-conjugated lectin (Lycopersicon esculentum; Vector Laboratories, Burlingame, Calif.). Thirty minutes later, the eyes were harvested and fixed with 10% neutral buffered formalin for 24 hours. The corneas were isolated and flat-mounted on glass slides. The fluorescence in the perfused vessels was captured using a Leica SP5 multiphoton microscope (Milton Keynes, UK). Vessel formation within tagged information file format (.tiff) files was measured by visualization with Image J (Rasband, 1997-2014).\nAt day 6 all rats were graded by an opthalmologist blinded to the treatment. Grading scales were as follows:\nVessel distance from suture: 0=no reach; 1=small distance; 2=moderate distance; 3=¾ of the way; 4=reached sutures;\nVessel density grading: 0=no density; 1=mild; 2=moderate; 3=high Inflammation grading: 0=none; 1=minimal; 2=moderate; 3=severe;"}, "[6]": {"tested_on": "retinal inflammation", "experiment": "Mouse experimental autoimmune uveitis (EAU) model, clinical score from fundus images (TEFI)", "details": "for Difference between day 14 p.i. and day 24 p.i. (clinical score): paired Student's t test", "protocol": "The effect of ALM201 on autoimmune uveitis was tested in a mouse model of experimental autoimmune uveitis (EAU).\nAll mice were maintained in a normal experimental room and exposed to a 12-hour-dark-12-hour light cycle.\nAn additional 1 mg Bordetella pertussis toxin (Tocris Bioscience, Bristol, UK) was administered intraperitoneally immediately after peptide injection.\nMouse pupils were dilated with 1% atropine sulphate and 2.5% phenylephrine hydrochloride (Chauvin, Essex, UK). The animals were anaesthetised by isofluorane. […] Clinical score of retinal inflammation was accessed using the criteria described previously by us (Xu et al. 2008a).\nTen mice were assigned into each group.\nAll animals were treated for 10 days from day 14 to 24 p.i.\nGroup 2: ALM201 0.3 mg/kg in 100 ml, i.p. injection, once daily.\nGroup 3: ALM201 3 mg/kg in 100 ml, i.p. injection, once daily.\nGroup 4: Dexamethasone 0.5 mg/kg in 100 ml, p.o. (gavage), once daily.\nGroup 5: ALM201 0.3 mg/kg in 100 ml, i.p. injection+Dexamethasone 0.5 mg/kg in 100 ml, p.o. (gavage) once daily.\nData (Clinical score and histological score) was expressed as mean±SD. One way ANOVA followed by the Tukey's Multiple Comparison Test was used to detect difference between all treatment groups. In addition, Mann-Whitney U test (two tails) was used to detect the difference between ALM201 or dexamethasone treated group and PBS control group. Paired Student's t test was used to compare clinical score before and after treatment."}, "[7]": {"tested_on": "retinal inflammation", "experiment": "Mouse EAU model, histopathology (H&E) and histological score", "assay_type": "in vivo, C57BL/6J mice", "description": "On day 24 p.i., fundus images were taken from all experimental mice using the TEFI system. Mice were then sacrificed by CO2 inhalation and eyes were carefully removed. All eyes were fixed in 2.5% (w/v) glutaraldehyde (Agar Scientific Ltd, Cambridge, UK) for 2 days at room temperature. Eyes were embedded in paraffin for standard H&E staining. Histological scores of retinal inflammation were graded using a standard scoring system described previously (Dick A. D., Cheng Y. F., Liversidge J., Forrester J. V., 1994. Immunomodulation of experimental autoimmune uveoretinitis: a model of tolerance induction with retinal antigens. Eye 8 (Pt 1), 52-59, incorporated herein by reference). Retinal sections from at least three different layers from each eye were used for histopathological analysis. The average score from three layers was used as the final pathological score of the eye."}, "[8]": {"tested_on": "p-IκBα", "experiment": "Immunohistochemistry of p-IκBα expression in rat cornea", "assay_type": "in vivo", "details": "1 μM ALM201", "procedure": "as §1, §3"}, "[9]": {"details": "ALM201 0.3 mg/kg i.p. once daily day 14-24 p.i., 10 mice"}, "[10]": {"details": "ALM201 3 mg/kg i.p. once daily day 14-24 p.i., 10 mice"}, "[11]": {"details": "ALM201 0.3 mg/kg, after 10 days therapy"}}}
{"sequence": "IRQQPRDPPTETLELEVSPDPAS (listed as Homo Sapiens) [ALM201]", "values": [{"measurement": "Bodyweight during the 10-day treatment period", "setting": "[1]", "result": "stable BW"}, {"measurement": "Cell infiltrate, corneal swelling and blood vessels (H&E)", "setting": "[2]; ALM201 0.01 μM to 10 μM", "result": "decreased as the ALM201 concentration was increased"}, {"measurement": "Corneal swelling (H&E)", "setting": "[2]; ALM201 100 μM", "result": "more corneal swelling was observed"}, {"measurement": "NFκB expression compared to PBS control sutured corneas", "setting": "[3]; sutured corneas", "result": "reduction in NFκB expression in the stroma"}, {"measurement": "Pattern of NFκB expression", "setting": "[3]; unsutured corneas", "result": "no effect"}, {"measurement": "CD44 expression compared to sutured PBS control", "setting": "[4]", "result": "decrease in CD44 expression"}, {"measurement": "Suture-induced neovascularisation in images", "setting": "[5]; Hooded Lister Rats, 100 nM ALM201, dexamethasone, vs PBS control", "result": "absence of neovascularisation"}, {"measurement": "Growth of new blood vessels after corneal damage", "setting": "[5]; after subconjunctival injection or topical application", "result": "prevented growth of new blood vessels"}, {"measurement": "Vessel distance from suture compared to PBS control", "setting": "[5]; subconjunctival injection day 0, 3, 6, 100 nM ALM201, graded day 6", "result": "significant difference of p<0.01"}, {"measurement": "Vasculature in images (neovascularisation induced by sutures)", "setting": "[5]; subconjunctival injection, 100 nM ALM201, Triamcinolone positive control", "result": "normal vasculature"}, {"measurement": "Vasculature in images (neovascularisation induced by sutures)", "setting": "[5]; topical treatment, daily", "result": "normal vasculature"}, {"measurement": "Vessel density compared to PBS control", "setting": "[5]; topical treatment, daily", "result": "significantly different"}, {"measurement": "Anti-inflammatory activity", "setting": "[5]; when injected", "result": "had anti-inflammatory activity when injected"}, {"measurement": "Mice in which progression was prevented or inflammation reduced", "setting": "[6]; ALM201 0.3 mg/kg", "result": 20, "unit": "%"}, {"measurement": "Mice with decreased level of EAU progression", "setting": "[6]; ALM201 0.3 mg/kg", "result": 80, "unit": "%"}, {"measurement": "No. of mice with decreased score (%)", "setting": "[6]; [9]", "result": "(10%)"}, {"measurement": "No. of mice with increased score", "setting": "[6]; [9]", "result": 8}, {"measurement": "No. of mice with increased score (%)", "setting": "[6]; [9]", "result": "(80%)"}, {"measurement": "No. of mice with no change (%)", "setting": "[6]; [9]", "result": "(10%)"}, {"measurement": "Difference between day 14 p.i. and day 24 p.i. (clinical score)", "setting": "[6]; ALM201 0.3 mg/kg i.p., 0.3 mg/kg", "result": "did not significant change and No"}, {"measurement": "Retinal infiltrates in fundus images compared to PBS treated EAU mice", "setting": "[6]; ALM201 0.3 mg/kg, day 24 p.i.", "result": "the number of infiltrates was fewer"}, {"measurement": "Average increment in clinical score, day 14 to day 24 p.i.", "setting": "[6]; ALM201 0.3 mg/kg, the 8 mice with increased score", "result": 0.68}, {"measurement": "No. of mice with decreased score", "setting": "[6]; [10]", "result": 3}, {"measurement": "No. of mice with increased score (%)", "setting": "[6]; [10]", "result": "(40%)"}, {"measurement": "No. of mice with no change", "setting": "[6]; [10]", "result": 3}, {"measurement": "Difference between day 14 p.i. and day 24 p.i. (clinical score)", "setting": "[6]; ALM201 3 mg/kg i.p.", "result": "No"}, {"measurement": "Average decrement in clinical score, day 14 to day 24 p.i.", "setting": "[6]; ALM201 3 mg/kg, the 3 mice with decreased score", "result": 0.33}, {"measurement": "Average increment in clinical score, day 14 to day 24 p.i.", "setting": "[6]; ALM201 3 mg/kg, the four mice with increased score", "result": 0.82, "unit": "point"}, {"measurement": "Infiltrating cells in retinal histology", "setting": "[7]; [11]", "result": "Fewer infiltrating cells"}, {"measurement": "Retinal structure compared to PBS treated mice", "setting": "[7]; [11]", "result": "retinal structure was better preserved"}, {"measurement": "Retinal inflammation graded by standard histological scoring system (FIG. 8H)", "setting": "[7]; ALM201 0.3 and 3 mg/kg", "result": "dose-dependently suppressed retinal inflammation"}, {"measurement": "p-IκBα expression compared to PBS treated sutured corneas", "setting": "[8]; sutured corneas", "result": "reduced"}, {"measurement": "p-IκBα expression", "setting": "[8]; unsutured corneas", "result": "no expression of p-IκBα"}]}
